Assay results taken from PMC11292009, “Mapping protein binding sites by photoreactive fragment pharmacophores” (Communications Chemistry, 2024).
Several values for one entry are separate records, joined by “and”; a condition that tells them apart may be missing. Equal entries are not always repeated.

Key:
Format in all cases: binding
[1] = system: carbonic anhydrase II (CA); test: Intact protein MS photoaffinity labeling screen, carbonic anhydrase; settings: intact protein MS after 10 min irradiation
Summary of the method: (§1)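 Intact-protein mass spectrometry detected covalent adduct mass shifts, giving percent labeling per fragment. Beforehand, single fragments per well were pre-incubated 15 min with each benchmark protein ahead of photoactivation.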

STAT5B-NTD [2] = system: T1, STAT5B-NTD; test: Intact MS photoaffinity labeling screen, STAT5B-NTD (365 nm, UHPLC-MS); settings: for MS labeling percentage, STAT5B: STAT5B-NTD, 365 nm 10 min, no photocatalyst;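 as to MS labeling percentage, STAT5B: 0.17 µL of 100 mM DMSO fragment stock added to the protein sample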
T1 construct: His-SUMO (N, cleaved yes); made in house; host or cells: E. coli BL21 RILP
Summary of the method: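 Intact-protein labeling detected by UHPLC-MS in positive ion mode over m/z 100–2000. Samples were first photo-crosslinked at 365 nm for 10 min at 4 °C. Before irradiation, 7 µM STAT5B in PBS pH 7.4 was pre-incubated with probe for 1 h in the dark at room temperature.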

STAT5B-NTD [3] = system: T1, STAT5B-NTD; test: Intact MS labeling screen, STAT5B-NTD conjugated with photocatalyst Ir-G2-PEG3-COOH (450 nm); settings: 450 nm 10 min;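 also: 0.14 µL of 100 mM DMSO fragment stock added to the conjugate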
Summary of the method: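 Ir-G2-PEG3-COOH photocatalyst (10 eq) activated 30 min with EDC/NHS/BOP, then conjugated to STAT5B-NTD (7 µM) overnight at RT or 1 h at 37 °C in dark. PhP added, 1 h dark, then 450 nm irradiation 10 min at 4 °C; labeling read by intact LC-MS, positive ion mode, m/z 100–2000.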

myoglobin (Myo) = test: Intact protein MS photoaffinity labeling screen, myoglobin; settings: intact protein MS after 10 min irradiation
Summary of the method: as §1

lysozyme (Lyo) = test: Intact protein MS photoaffinity labeling screen, lysozyme; settings: intact protein MS after 10 min irradiation
Summary of the method: as §1

KRas^G12D = system: T2, KRas^G12D; test: Intact MS photoaffinity labeling screen, KRas G12D (302 nm, LCMS-TOF); settings: for MS labeling percentage, KRas: KRas G12D, 302 nm 10 min
T2 construct: purchased GSK/GenScript
Summary of the method: (§2)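 Labeling detected as mass additions in deconvoluted intact-protein LCMS-TOF spectra. Protein at 1 μM in PBS was first mixed with one fragment per well on ice for 15 min, followed by 10 min UV exposure at 302 nm.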

[4] = system: CA, Lyo, Myo, BRD4-BD1, KRas G12D, STAT5B-NTD; test: Intact MS labeling compared over all protein targets; settings: for Number of targets labeled in higher than 10% amount: of the six protein targets; for Labeling of the other protein targets (vs. preferred target): each of the other targets
Procedure: Using a plate-based format with one fragment per well, each fragment was incubated with the target proteins for 15 min to allow for the formation of non-covalent interactions. The plate was then irradiated at 302 or 365 nm for 10 min to enable the bound fragments to crosslink to the protein[26]. Finally, the results were directly analyzed from the plate using intact protein mass spectrometry by observing the mass additions that correspond to successful labeling (Fig. 2c, for labeling % values see Supplementary data). The library was first characterized against three benchmark proteins like carbonic anhydrase (CA), lysozyme (Lyo), and myoglobin (Myo).
The PhP library was screened against BRD4-BD1 and KRas^G12D as follows. Using a Labcyte Echo® 555 Liquid Handler, 150 nL of fragment solution (20 mM) was transferred into a Greiner 384 low-volume plate (white) to prepare the probe plate. The probe plate was placed on ice. 15 μL of protein stock solution (1 μM BRD4-BD1 (GSK/GenScript) or KRas^G12D (GSK/GenScript) in PBS buffer) was dispensed into wells containing fragments. The plate was left on ice for 15 min for incubation, then irradiated at 302 nm for 10 min, and centrifuged (1000 rpm, 1 min) to remove any bubbles. The plate was then analyzed by LCMS-TOF mass spectrometry (Agilent 1200 series liquid chromatography with Agilent Bio-HPLC PLRP-S (1000 Å, 5 µm × 50 mm × 1.0 mm, PL1312-1502) reverse phase HPLC column at 70 °C equipped with an Agilent G6224 time-of-flight (ToF), see Supplementary Note 2 for the full protocols). The deconvoluted spectra were analyzed using R Studio software.
During the analysis, the column temperature was maintained at a constant 60 °C, and a sample volume of 3 µL was injected for each analysis. Data acquisition was conducted in positive ion mode within the m/z 100–2000 (mass-to-charge ratio) range. For the full protocol and spectra of the hits, see Supplementary Note 2.

BRD4-BD1 = system: T3, BRD4-BD1; test: Intact MS photoaffinity labeling screen, BRD4-BD1 (302 nm, LCMS-TOF); settings: for MS labeling percentage, BRD4: BRD4-BD1, 302 nm 10 min
T3 construct: screened the PhP library against the first bromodomain of BRD4 (BRD4-BD1); purchased GSK/GenScript
Summary of the method: as §2

[5] = hit flag 1/0, sheet PhP, photoaffinity labeling screen
[6] = sheet PhP, experimental hit status flag given as 0 or 1
[7] = PhP library sheet "PhP", binary flag printed as 0 or 1, key not given

SMILES	MS labeling percentage, CA [1] [%]	MS labeling percentage, STAT5B (STAT5B-NTD [2]) [%]	STAT5B-NTD (experimental hit status) (STAT5B-NTD [2]; [5])	MS labeling percentage, STAT5B+photocat (STAT5B-NTD [3]) [%]	MS labeling percentage, Myo (myoglobin (Myo)) [%]	MS labeling percentage, Lyo (lysozyme (Lyo)) [%]	MS labeling percentage, KRas (KRas^G12D) [%]	KRAS-G12D (experimental hit status) (KRas^G12D; [5])	Number of targets labeled in higher than 10% amount [4]	MS labeling percentage, BRD4 (BRD4-BD1) [%]	BRD4-BD1 (experimental hit status) (BRD4-BD1; [5])	Labeling of the other protein targets (vs. preferred target) [4]	STAT5B-NTD (experimental hit status) (STAT5B-NTD [2]; [6])	KRAS-G12D (experimental hit status) (KRas^G12D; [6])	BRD4-BD1 (experimental hit status) (BRD4-BD1; [6])	STAT5B-NTD (experimental hit status) (STAT5B-NTD [2]; [7])	KRAS-G12D (experimental hit status) (KRas^G12D; [7])	Labeling efficiency over all protein targets (mean ± spread) ([4]; over all protein targets) [%]	BRD4-BD1 (experimental hit status) (BRD4-BD1; [7])
COc1ccc(OC)c(C(O)C(C)NC(=O)CCC2(C)N=N2)c1 (stereo not drawn) [PhP038, COc1ccc(OC)c(c1)C(O)C(C)NC(=O)CCC2(C)N=N2]	3.6	4.8	0	5.1	1.1	3.6	62.1	0	two	25.5	0	–	–	–	–	–	–	–	–
CC1(CCC(=O)NCc2cc3ccccc3[nH]2)N=N1 [PhP040, N1=NC1(C)CCC(=O)NCc(c2)[nH]c(c23)cccc3]	0.7	75	0	74	0.5	0.3	1.9	0	–	2.1	0	> 3% and < 3%	–	–	–	–	–	–	–
CCN(CCCNC(=O)CCC1(C)N=N1)c1ccccc1 [PhP048, c1ccccc1N(CC)CCCNC(=O)CCC2(C)N=N2]	0	2.9	0	3.2	0	2.1	29.4	0	–	0.4	0	> 3% and < 3%	–	–	–	–	–	–	–
CC1(CCC(=O)NCc2nc3ncccc3[nH]2)N=N1 [PhP053, N1=NC1(C)CCC(=O)NCc(n2)[nH]c(c23)cccn3]	1.2	0	0	1	0.6	0	2	0	–	6.7	1	> 2% and < 2%	–	–	–	–	–	–	–
Cc1c[nH]c(=O)n1-c1cccc(CNC(=O)CCC2(C)N=N2)c1 [PhP077, Cc1c[nH]c(=O)n1-c2cccc(c2)CNC(=O)CCC3(C)N=N3]	0.1	20	–	11.5	0.2	0	0.7	–	–	–	–	> 3% and < 3%	0	0	0	–	–	–	–
Cc1noc(C)c1-c1ccc(CNC(=O)CCC2(C)N=N2)cc1 [PhP080, Cc1noc(C)c1-c2ccc(cc2)CNC(=O)CCC3(C)N=N3]	3	1	–	21.1	3	7.7	3.2	–	–	–	–	–	–	–	–	0	0	3.6 ± 2.2	0
CCCc1nn(C)c(C(N)=O)c1NC(=O)CCC1(C)N=N1 [PhP082, CCCc1nn(C)c(C(=O)N)c1NC(=O)CCC2(C)N=N2]	0	0	–	2.4	52.9	0	0	–	–	0.2	–	> 0.5% and < 0.5%	–	–	–	0	0	–	0
COc1ccc(NS(=O)(=O)c2cccc(NC(=O)CCC3(C)N=N3)c2)cc1 [PhP087, COc1ccc(cc1)NS(=O)(=O)c2cccc(c2)NC(=O)CCC3(C)N=N3]	18.9	2.9	–	8	3.2	1.5	12.6	–	two	0.7	–	–	–	–	–	0	0	–	0
CC1(CCC(=O)NCc2ccc(-c3ccc(O)cc3)cc2)N=N1 [PhP088, N1=NC1(C)CCC(=O)NCc2ccc(cc2)-c3ccc(O)cc3]	0	0	–	5.7	0.2	4.8	0.2	–	–	0.5	–	> 1% and < 1%	–	–	–	0	0	–	0
Cc1nc(CCNC(=O)CCC2(C)N=N2)sc1C [PhP092, Cc1nc(sc1C)CCNC(=O)CCC2(C)N=N2]	0.3	0	–	0.8	0.1	35.6	0.1	–	–	0.5	–	> 1% and < 1%	–	–	–	0	0	–	0
